Measurements from patent US20180193391A1, “INDUCTION OF LAMINA PROPRIA REGULATORY T CELLS” (President and Fellows of Harvard College, priority 2015, published 2018).

B1: IL-33: recombinant mouse IL-33 (BioLegend); alarmin (protein, UniProt Q8BVZ5 1-266, looked up)
Interleukin-33: MRPRMKYSNSKISPAKFSSTAGEALVPPCKIRRSQQKTKEFCHVYCMRLRSGLTIRKETSYFRKEPTKRYSLKSGTKHEENFSAYPRDSRKRSLLGSIQAFAASVDTLSIQGTSLLTQSPASLSTYNDQSVSFVLENGCYVINVDDSGKDQEQDQVLLRYYESPCPASQSGDGVDGKKLMVNMSPIKDTDIWLHANDKDYSVELQRGDVSPPEQAFFVLHKKSSDFVSFECKNLPGTYIGVKDNQLALVEEKDESCNNIMFKLSKI

Columns and labels:
colonic Rorγ^+ Tregs = assay: Mono-colonization of germ free mice with single bacterial species; colonic Rorγ+ Tregs by flow cytometry; type: in vivo, Germfree C57BL/6J mice
Experimental: A panel of bacterial species selected from the microbiota of the human gastrointestinal tract were tested for their ability to induce the production of Rorγ^+ Tregs. Bacteria were obtained from the ATCC, BEI Resources, or the German Collection of Microorganisms and Cell Cultures (DSMZ), or from the laboratory collections at Harvard Medical School. Anaerobic bacteria were cultured under strictly anaerobic conditions (80% N2, 10% H2, 10% CO2) at 37° C. in an anaerobic chamber.
Germfree C57BL/6J were maintained in sterile isolators, and were inoculated by gavage with single bacterial species at 4 weeks of age, then housed in gnobiotic isolators. After 2 weeks, mice were sacrificed, colon tissue was harvested, cleaned of luminal content and treated with RPMI containing 1 mM DTT, 20 mM EDTA and 2% FBS at 37° C. for 15 min to remove epithelial cells. The colon tissue was then minced and dissociated in collagenase solution (1.5 mg/ml collagenase II (Gibco), 0.5 mg/ml dispase and 1% FBS in RPMI) with constantly stirring at 37° C. for 45 min. […] Cells were analyzed with a BD LSRII flow cytometer, and data analysis was performed with FlowJo (Tree Star) software. The proportion of Rorγ^+ Tregs was determined within the total population of CD4^+FoxP3^+ Treg cells, and the significance of the difference relative to unmanipulated germfree mice determined using a two-tailed Student's T-test. […]

Rorγ^+ Tregs = assay: IL-33 administration to mice; response of Rorγ+ Tregs; type: in vivo; details: recombinant mouse IL-33 i.p.
Experimental: Mice were bred in a pathogen-free facility or in germ-free isolators. For IL-33 administration, recombinant mouse IL-33 (BioLegend) was administered i.p. at 2 μg/injection every other day for 7 days.

Molecule | induction of production of Rorγ^+Helios^− LP Tregs (colonic Rorγ^+ Tregs; germ free mice colonized with single bacterial species for 2 weeks, FIGS. 4D, 4E and 5) | ability to promote colonic Treg production (proportions) (colonic Rorγ^+ Tregs; within the Bacteroides genus, mono-colonized germ free mice) | response of Rorγ^+ Tregs to IL-33 (Rorγ^+ Tregs)
Bacteroides fragilis | capable of inducing production | low | –
B1 | – | – | do not respond
